The values below come from US6426329B1, “Immunosuppressant activity of insulin-like growth factor I (IGF-I)” (Fujisawa Pharmaceutical Co., Ltd., priority 1997, dated 2002).

Test [1] deals with Bile secretions. Put plainly: Choleretic action of FK506 and synergistic action of IGF-I (bile secretion in bile duct-cannulated anesthetized rats). In kind it is in vivo, rat. The conditions noted are these: for effect on choleresis (in words): summary of Table 2 data, IGF-I in combination with FK506. As to the method: Using male SD rats (6 weeks old) under urethane anesthesia (1.2 g/5 ml/kg), a midline incision was made in the abdominal region. Ligation was performed at the lower part of the common bile duct and a polyethylene tube (PE10, Intramedics) was inserted from above and ligated in position. The bile was thus withdrawn extracorporeally and pooled. The rat was kept warm on a hot plate at 37° C. and the volume of the bile withdrawn-was measured at 30-min intervals. […] As to FK506, FK506 Inj. (1P mg/1 ml vial) was used. Rats in the control group received saline both intravenously and subcutaneously. The bile was collected up to 180min after medication. As the baseline secretions, the average of the values at 2 points of time immediately preceding drug administration was used.

In a further test the test system is IGF-I. Description: IGF-I producing action of FK506 (liver and blood IGF-I by rat IGF-I RIA kit after 7 days oral dosing). In kind it is in vivo. The conditions noted are these: male SD rats; for increase of blood concentration of IGF-I / increase of concentration of IGF-I in the liver: 0.5 hour after final dose. The protocol: Male SD rats aged 6 weeks were orally dosed with FK506 once daily for 7 consecutive days, and at 0.5 hour following the final dose, the liver and blood were isolated. The blood IGF-I concentration was measured by acid-ethanol extraction and subsequent assay with a rat IGF-I RIA kit (DSL). The hepatic IGF-I level was measured by acetic acid extraction and subsequent assay with the rat IGF-I RIA kit. Five rats per group were used.

Test [2] deals with Bile secretions. Put plainly: Anticholeretic action of CsA and antagonizing action of IGF-I (bile secretion in bile duct-cannulated anesthetized rats). It counts as in vivo, rat. As to the method:
Using male SD rats (7 weeks old) under urethane anesthesia (1.2 g/5 ml/kg), a midline incision was made in the abdominal region. Ligation was performed at the lower part of the common bile duct and a polyethylene tube (PE10, Intramedics) was inserted from above and ligated in position. The bile was thus withdrawn extracorporeally and pooled. The rat was kept warm on a hot plate at 37° C. and the volume of the bile withdrawn was measured at 30-min intervals. […] (250 mg/5 ml vial) was diluted with saline. Rats in the control group received saline both intravenously and subcutaneously. The bile was collected up to 180 min after drug administration. As the baseline secretions, the average of the values at 2 points of time immediately preceding drug administration was used.

The mark [3] stands for this setting: FK506 1 mg/kg orally once daily for 7 days.
The mark [4] stands for this setting: FK506 10 mg/kg orally once daily for 7 days.
Where [5] appears, read: Before administration (baseline).
[6] abbreviates: Before administration (baseline), Mean ± S.E.

Turning to `C=CC[C@@H]1/C=C(\C)C[C@H](C)C[C@H](OC)[C@H]2O[C@@](O)(C(=O)C(=O)N3CCCC[C@H]3C(=O)O[C@H](/C(C)=C/[C@@H]3CC[C@@H](O)[C@H](OC)C3)[C@H](C)[C@@H](O)CC1=O)[C@H](C)C[C@@H]2OC` [FK506, 17-allyl-1,14-dihydroxy-12-[2-(4-hydroxy-3-methoxycyclohexyl)-1-methylvinyl]-23,25-dimethoxy-13,19,21,27-tetramethyl-11,28-dioxa-4-azatricyclo[22.3.1.0^4,9] octacos-18-ene-2,3,10,16-tetraone], the “effect on choleresis (in words)” value in the test with Bile secretions [1] was “has a choleretic action”. The “increase of blood concentration of IGF-I” value in the test on IGF-I (setting [3]) was 14%; in the test with IGF-I (setting [4]), 11%. Moreover, the “increase of concentration of IGF-I in the liver” value in the test on IGF-I (setting [3]) amounted to 28%; in the test with IGF-I (setting [4]) it was 26%. Also, the “IGF-I producing activity (in words)” value in the test on IGF-I (liver) is reported as “express IGF-I producing activity in the liver”.

In the case of “IGF-I: insulin-like growth factor I (IGF-I), dissolved in saline, given subcutaneously”, the “Bile secretions, % of preadministration baseline” value (“Bile secretions, %” for short) in the test with Bile secretions [2] (0˜30 min after administration, CsA 10 mg/kg i.v., IGF-I 10 mg/kg s.c.) is on record as “(109) %”; in the test on Bile secretions [2] (30˜60 min after administration, CsA 10 mg/kg i.v., IGF-I 10 mg/kg s.c.), “(121) %”; with Bile secretions [2] (60˜90 min after administration, CsA 10 mg/kg i.v., IGF-I 10 mg/kg s.c.), “(124) %”; in the test with Bile secretions [2] (90˜120 min after administration, CsA 10 mg/kg i.v., IGF-I 10 mg/kg s.c.), “(118) %”; in the test on Bile secretions [2] (120˜150 min after administration, CsA 10 mg/kg i.v., IGF-I 10 mg/kg s.c.), “(121) %”; in the test with Bile secretions [2] (150˜180 min after administration, CsA 10 mg/kg i.v., IGF-I 10 mg/kg s.c.), “(118) %”. Moreover, the “Bile secretions, %” value in the test on Bile secretions [2] (setting [5]) is given as “(100) %”; with Bile secretions [1] (0˜30 min after administration, 10 mg/kg i.v. immunosuppressant, IGF-I 10 mg/kg s.c.) it was “(109) %”; with Bile secretions [1] (30˜60 min after administration, 10 mg/kg i.v. immunosuppressant, IGF-I 10 mg/kg s.c.) it was “(117) %”; in the test with Bile secretions [1] (60˜90 min after administration, 10 mg/kg i.v. immunosuppressant, IGF-I 10 mg/kg s.c.), “(120) %”; in the test with Bile secretions [1] (90˜120 min after administration, 10 mg/kg i.v. immunosuppressant, IGF-I 10 mg/kg s.c.), “(120) %”; in the test with Bile secretions [1] (120˜150 min after administration, 10 mg/kg i.v. immunosuppressant, IGF-I 10 mg/kg s.c.) it was “(123) %”. The “Bile secretions, %” value in the test with Bile secretions [1] (150˜180 min after administration, 10 mg/kg i.v. immunosuppressant, IGF-I 10 mg/kg s.c.) is on record as “(114) %”; in the test on Bile secretions [1] (setting [5]), “(100) %”. For the same compound, the Bile secretions was found to be 0.33 ± 0.03 ml/30 min in the test on Bile secretions [2] (setting [6]) and 0.35 ± 0.01 ml/30 min in the test with Bile secretions [1] (setting [6]). The “effect on choleresis (in words)” value in the test with Bile secretions [2] (summary of Table 1 data, IGF-I in combination with CsA) is recorded as “enhances choleresis”; with Bile secretions [1] it was “enhances choleresis”.
